ChEMBL document CHEMBL1275513, “R chi-01, a new family of oxazolidinones that overcome ribosome-based linezolid resistance” (Antimicrob Agents Chemother, 2008)
≈ marks a conversion by molar mass, not a printed value.

What was measured:
[1] = Inhibition of 50S ribosomal subunit purified from Staphylococcus aureus ATCC 29213 assessed as inhibition of translation using in vitro transcribed mRNA encoding firefly luciferase
[2] = Selectivity ratio of IC50 for […] to IC50 for Staphylococcus aureus ATCC 29213 50S ribosomal subunit
Staphylococcus aureus [3] = experiment: Antimicrobial activity against Staphylococcus aureus ATCC 29213; type: functional
Staphylococcus aureus [4] = experiment: Antimicrobial activity against linezolid-,erythromycin-resistant Staphylococcus aureus A7820 with G2576U mutation at 23s rRNA; type: functional
Enterococcus faecalis [5] = experiment: Antimicrobial activity against Enterococcus faecalis ATCC 29212; type: functional
Enterococcus faecalis [6] = experiment: Antimicrobial activity against linezolid-resistant Enterococcus faecalis P5; type: functional
Enterococcus faecium = experiment: Antimicrobial activity against linezolid-resistant Enterococcus faecium A6349 expressing VanA gene; type: functional
Bacterial 70S ribosome [7] = experiment: Displacement of [3H]chloramphenicol from 70S ribosomal complex in Staphylococcus aureus ATCC 29213 by competitive binding assay
[8] = Inhibition of 50S ribosomal subunit purified from linezolid-,erythromycin-resistant Staphylococcus aureus A7820 with G2576U mutation in 23s rRNA assessed as inhibition of translation using in vitro transcribed mRNA encoding firefly luciferase
Bacterial 70S ribosome [9] = experiment: Displacement of [3H]puromycin from 70S ribosomal complex in Staphylococcus aureus ATCC 29213 by competitive binding assay

Row | Structure (SMILES) | IC50 [1] | ratio [2] | MIC (Staphylococcus aureus [3]) | MIC (Staphylococcus aureus [4]) | MIC (Enterococcus faecalis [5]) | MIC (Enterococcus faecalis [6]) | MIC (Enterococcus faecium) | IC50 (Bacterial 70S ribosome [7]) | IC50 [8] | IC50 (Bacterial 70S ribosome [9])
1 | CC(=O)NC[C@H]1CN(c2ccc(-c3ccc(CN)cc3)c(F)c2)C(=O)O1 | ≤ 0.02 µM | > 100 | 4 µg/mL (≈ 11.2 µM) | 8 µg/mL (≈ 22.4 µM) | 0.5 µg/mL (≈ 1.4 µM) | 8 µg/mL (≈ 22.4 µM) | 1 µg/mL (≈ 2.8 µM) | 58 µM |  | 
2 | CC(=O)NC[C@H]1CN(c2ccc(-c3ccc(CNCC(N)=O)cc3)c(F)c2)C(=O)O1 | ≤ 0.02 µM | > 50 | 4 µg/mL (≈ 9.65 µM) | 8 µg/mL (≈ 19.3 µM) | 0.5 µg/mL (≈ 1.21 µM) | 8 µg/mL (≈ 19.3 µM) | 1 µg/mL (≈ 2.41 µM) |  |  | 
3 | CC(=O)NC[C@H]1CN(c2ccc(-c3ccc(CNC(=N)N)cc3)c(F)c2)C(=O)O1 | ≤ 0.02 µM | > 100 | 2 µg/mL (≈ 5.01 µM) | 8 µg/mL (≈ 20 µM) | 2 µg/mL (≈ 5.01 µM) | 8 µg/mL (≈ 20 µM) | 2 µg/mL (≈ 5.01 µM) | 50 µM | 0.08 µM | 8.7 µM
4 | CC(=O)NC[C@H]1CN(c2ccc(-c3ccc(Cn4ncnn4)cc3)c(F)c2)C(=O)O1 | 0.06 µM | 23 | 0.5 µg/mL (≈ 1.22 µM) | 1 µg/mL (≈ 2.44 µM) | 0.25 µg/mL (≈ 0.609 µM) | 1 µg/mL (≈ 2.44 µM) | 0.5 µg/mL (≈ 1.22 µM) |  |  | 
5 | CC(=O)NC[C@H]1CN(c2ccc(-c3ccc(CNCCCF)cc3)c(F)c2)C(=O)O1 | ≤ 0.02 µM | > 100 | 1 µg/mL (≈ 2.4 µM) | 8 µg/mL (≈ 19.2 µM) | 0.5 µg/mL (≈ 1.2 µM) | 2 µg/mL (≈ 4.79 µM) | 1 µg/mL (≈ 2.4 µM) | 45 µM | 0.06 µM | 
6 | CC(=O)NC[C@H]1CN(c2ccc(-c3ccc(Cn4ccnn4)cc3)c(F)c2)C(=O)O1 | 0.13 µM | > 100 | 0.5 µg/mL (≈ 1.22 µM) | 1 µg/mL (≈ 2.44 µM) | 0.5 µg/mL (≈ 1.22 µM) | 1 µg/mL (≈ 2.44 µM) | 1 µg/mL (≈ 2.44 µM) |  | 0.21 µM | 
7 | CC(=O)NC[C@H]1CN(c2ccc(-c3ccc(CNC(=O)/C=C/c4c(C)[nH]c(=O)[nH]c4=O)cc3)c(F)c2)C(=O)O1 | 0.09 µM | 17 | 0.25 µg/mL (≈ 0.467 µM) | 8 µg/mL (≈ 14.9 µM) | 1 µg/mL (≈ 1.87 µM) | 16 µg/mL (≈ 29.9 µM) | 1 µg/mL (≈ 1.87 µM) |  | 0.03 µM | 
8 | O=C(N[C@H](CO)[C@H](O)c1ccc([N+](=O)[O-])cc1)C(Cl)Cl [CHLORAMPHENICOL] | 7.8 µM | 25 | 8 µg/mL (≈ 24.8 µM) | 64 µg/mL (≈ 198 µM) | 8 µg/mL (≈ 24.8 µM) | 32 µg/mL (≈ 99 µM) | 24 µg/mL (≈ 74.3 µM) | 0.43 µM | 54 µM | 
9 | CS(=O)(=O)c1ccc([C@@H](O)[C@@H](CF)NC(=O)C(Cl)Cl)cc1 [FLORFENICOL] | 0.7 µM | > 100 | 8 µg/mL (≈ 22.3 µM) | 64 µg/mL (≈ 179 µM) | 4 µg/mL (≈ 11.2 µM) | 16 µg/mL (≈ 44.7 µM) | 16 µg/mL (≈ 44.7 µM) | 20 µM | 16.4 µM | 
10 | CC(=O)NC[C@H]1CN(c2ccc(N3CCOCC3)c(F)c2)C(=O)O1 [LINEZOLID] | 0.9 µM | > 100 |  | 64 µg/mL (≈ 190 µM) |  | 32 µg/mL (≈ 94.9 µM) | 16 µg/mL (≈ 47.4 µM) | 1380 µM | 8.4 µM | 920 µM
11 | COc1ccc(C[C@H](N)C(=O)N[C@H]2[C@@H](O)[C@H](n3cnc4c(N(C)C)ncnc43)O[C@@H]2CO)cc1 [PUROMYCIN] |  |  |  |  |  |  |  |  |  | 0.9 µM
12 | CC(=O)NC[C@H]1CN(c2ccc(-c3ccc(CNCc4cnn[nH]4)cc3)c(F)c2)C(=O)O1 [RADEZOLID] | 0.02 µM | > 100 | 1 µg/mL (≈ 2.28 µM) | 8 µg/mL (≈ 18.2 µM) | 0.25 µg/mL (≈ 0.57 µM) | 1 µg/mL (≈ 2.28 µM) | 0.5 µg/mL (≈ 1.14 µM) |  | 0.03 µM | 
13 | CSC[S@@+]([O-])CC(CO)NC(=O)/C=C/c1c(C)[nH]c(=O)[nH]c1=O (some centres undefined) [SPARSOMYCIN] | ≤ 0.02 µM | 7 |  |  |  |  |  |  |  | 
